According to ChEMBL document CHEMBL1201862, “PubChem BioAssay data set” (2004):
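Where inhibition never reached the appropriate level, the endpoint shown equals the highest concentration tested. Otherwise, values were interpolated linearly from a five-concentration, 48-hour dose response in 96-well plates. GI50 = concentration required for 50% inhibition of growth.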 Activity calls are given as the source filed them. Cut-off read from the data, not from the text of the source: active = GI50 up to about 1.1 µM and inactive = higher.

Experiments:
Assay in all cases: NCI-60 cell line screen, 48 h
UACC-62 = tested on: UACC-62
SF-539 = tested on: SF-539
OVCAR-5 = tested on: OVCAR-5
OVCAR-8 = tested on: OVCAR-8
HCT-116 = tested on: HCT-116
786-0 = tested on: 786-0
SNB-19 = tested on: SNB-19
RXF 393 = tested on: RXF 393
HL-60 = tested on: HL-60
SN12C = tested on: SN12C
MOLT-4 = tested on: MOLT-4
U-251 = tested on: U-251
HCC 2998 = tested on: HCC 2998
HOP-92 = tested on: HOP-92
NCI-H226 = tested on: NCI-H226
TK-10 = tested on: TK-10

Measured: GI50

CC(=O)OCC(OC(C)=O)C(OC(C)=O)C(OC(C)=O)C(=O)CNn1c(-c2ccc(C)cc2)nc2ccccc2c1=O (stereo unspecified)
inactive: UACC-62 60.5 µM | SF-539 > 100 µM | OVCAR-5 > 100 µM | OVCAR-8 > 100 µM | HCT-116 > 100 µM | 786-0 > 100 µM | SNB-19 > 100 µM | RXF 393 > 100 µM | HL-60 50 µM | SN12C 76 µM | MOLT-4 82.8 µM | U-251 > 100 µM

CCOC(=O)/C=C(/CN1C(=O)c2ccccc2C1=O)c1ccccc1
inactive: UACC-62 > 100 µM | HCC 2998 > 100 µM | SF-539 > 100 µM | OVCAR-5 > 100 µM | OVCAR-8 > 100 µM | HCT-116 > 100 µM | HOP-92 > 100 µM | 786-0 > 100 µM | SNB-19 > 100 µM | RXF 393 > 100 µM | SN12C > 100 µM | NCI-H226 > 100 µM | MOLT-4 > 100 µM | U-251 > 100 µM | TK-10 > 100 µM

CCOC(=O)C1C(c2ccc(Br)cc2)N(Cc2ccccc2)C(c2ccc(Br)cc2)C(C(=O)OC)S1(=O)=O (stereo unspecified)
inactive: UACC-62 > 100 µM | HCC 2998 > 100 µM | OVCAR-5 > 100 µM | OVCAR-8 24.8 µM | HCT-116 25.2 µM | 786-0 32.3 µM | SNB-19 27.5 µM | RXF 393 33.6 µM | HL-60 > 100 µM | SN12C > 100 µM | NCI-H226 46.8 µM | MOLT-4 > 100 µM | TK-10 > 100 µM

O=c1[nH]cc(COCC(O)CO)c(=O)[nH]1 (stereo unspecified)
inactive: UACC-62 > 100 µM | SF-539 > 100 µM | OVCAR-5 > 100 µM | OVCAR-8 > 100 µM | HCT-116 > 100 µM | HOP-92 > 100 µM | 786-0 > 100 µM | SNB-19 > 100 µM | RXF 393 > 100 µM | HL-60 > 100 µM | SN12C > 100 µM | NCI-H226 > 100 µM | MOLT-4 > 100 µM | U-251 > 100 µM | TK-10 > 100 µM

N#Cc1ccccc1NC(=O)c1ccccc1
inactive: UACC-62 > 100 µM | SF-539 > 100 µM | OVCAR-5 > 100 µM | OVCAR-8 > 100 µM | HCT-116 > 100 µM | HOP-92 > 100 µM | 786-0 > 100 µM | SNB-19 > 100 µM | RXF 393 > 100 µM | SN12C > 100 µM | U-251 > 100 µM | TK-10 > 100 µM

C=CCc1cc(OC)c(O)c(C(=O)/C=C/c2ccc(OC)c(OC)c2)c1
inactive: UACC-62 23.8 µM | HCC 2998 21.8 µM | SF-539 19.1 µM | OVCAR-5 20.1 µM | OVCAR-8 > 10 µM | HCT-116 14.5 µM | 786-0 18.2 µM | SNB-19 15.6 µM | HL-60 11.6 µM | MOLT-4 1.2 µM | U-251 17.4 µM | TK-10 25.1 µM

O=C1NC(=O)C(=Cc2c3ccccc3cc3ccccc23)C(=O)N1
inactive: UACC-62 > 100 µM | SF-539 > 100 µM | OVCAR-8 > 100 µM | HCT-116 > 100 µM | HOP-92 > 100 µM | 786-0 > 100 µM | SNB-19 > 100 µM | RXF 393 > 100 µM | HL-60 44.7 µM | SN12C > 100 µM | MOLT-4 55.5 µM | U-251 > 100 µM | TK-10 > 100 µM

CCCNC(=O)C(C)(Cl)C(=O)c1ccccc1O (stereo unspecified)
inactive: UACC-62 > 100 µM | HCC 2998 > 100 µM | SF-539 > 100 µM | OVCAR-8 > 100 µM | HCT-116 > 100 µM | 786-0 > 100 µM | SNB-19 > 100 µM | RXF 393 > 100 µM | HL-60 > 100 µM | SN12C > 100 µM | NCI-H226 > 100 µM | MOLT-4 > 100 µM | U-251 > 100 µM | TK-10 > 100 µM

COC(=O)[C@@H]1CSC(=S)N1C(=O)C[C@H]1CC=CC[C@H]1CC(=O)Sc1ccccc1
inactive: UACC-62 19.3 µM | HCC 2998 17.9 µM | SF-539 17.8 µM | OVCAR-5 19.1 µM | OVCAR-8 21 µM | HCT-116 16.1 µM | 786-0 17.5 µM | SNB-19 18.2 µM | RXF 393 14.2 µM | HL-60 3.47 µM | SN12C 15.7 µM | NCI-H226 23.7 µM | MOLT-4 4.29 µM | U-251 15.5 µM | TK-10 > 10 µM

O=C1NC(=O)C(C(=O)C(=O)Nc2cccc(C(F)(F)F)c2)C(=O)N1
inactive: UACC-62 > 100 µM | HCC 2998 > 100 µM | SF-539 > 100 µM | OVCAR-5 > 100 µM | OVCAR-8 > 100 µM | HCT-116 > 100 µM | 786-0 > 100 µM | SNB-19 > 100 µM | RXF 393 > 100 µM | HL-60 > 100 µM | MOLT-4 > 100 µM | U-251 > 100 µM | TK-10 > 100 µM

COc1ccccc1NC(=O)C1=C(C)NC(C)=C(C(=O)Nc2ccccc2OC)C1c1ccc([N+](=O)[O-])cc1
inactive: UACC-62 59.6 µM | SF-539 > 100 µM | OVCAR-5 22.4 µM | OVCAR-8 > 100 µM | HCT-116 60.5 µM | 786-0 99.5 µM | SNB-19 89.1 µM | RXF 393 60.4 µM | HL-60 39.2 µM | SN12C > 100 µM | NCI-H226 > 100 µM | MOLT-4 7.23 µM | U-251 86.1 µM | TK-10 74.5 µM

O=C1CC2CCN(C(=O)c3ccccc3)CC2CCN1.O=C1CCC2CC(C(=O)c3ccccc3)CCC2CN1 (stereo unspecified)
inactive: UACC-62 52.1 µM | HCC 2998 > 100 µM | SF-539 > 100 µM | OVCAR-5 > 100 µM | OVCAR-8 > 100 µM | HCT-116 > 100 µM | 786-0 > 100 µM | SNB-19 > 100 µM | RXF 393 > 100 µM | HL-60 > 100 µM | SN12C > 100 µM | NCI-H226 > 100 µM | MOLT-4 > 100 µM | U-251 > 100 µM

Nc1nc(SCCC/C=C/B(O)O)nc2c1ncn2C1OC(COP(=O)(O)O)C(O)C1O (stereo unspecified)
inactive: UACC-62 > 203 µM | SF-539 > 203 µM | OVCAR-5 > 203 µM | OVCAR-8 > 203 µM | HCT-116 > 203 µM | HOP-92 > 203 µM | 786-0 > 203 µM | SNB-19 > 203 µM | HL-60 > 203 µM | SN12C > 203 µM | NCI-H226 > 203 µM | MOLT-4 > 203 µM | U-251 > 203 µM | TK-10 > 203 µM

CCOC(=O)c1s/c(=N\Nc2nc3ccccc3cc2C2OCCO2)n(Cc2ccccc2)c1C
inactive: UACC-62 > 100 µM | SF-539 > 100 µM | OVCAR-5 > 100 µM | OVCAR-8 > 100 µM | HCT-116 > 100 µM | HOP-92 > 100 µM | 786-0 > 100 µM | SNB-19 > 100 µM | RXF 393 > 100 µM | HL-60 > 100 µM | SN12C > 100 µM | NCI-H226 > 100 µM | MOLT-4 40.2 µM | U-251 > 100 µM | TK-10 > 100 µM
